Legend:
[1] = test system: induced-diabetic rats; assay: Antihyperglycemic activity: fasting blood glucose in alloxan-induced diabetic rats; type: in vivo, rat
[2] = test system: Cryptococcus neoformans ATCC90112; assay: Kirby-Bauer disc diffusion; conditions: reference antibiotic disc, 100 unit
[3] = test system: Candida albicans ATCC10231; assay: Kirby-Bauer disc diffusion; conditions: reference antibiotic disc, 100 unit

Compound | FBG after two hours of injection ([1]; diabetic rats, s.c., two hours) | difference between normal rats and treated diabetic rats ([1]; either dose) | FBG after 8 hours of treatment ([1]; lower dose of insulin (10 units/kg b.w)) | Zone of inhibition [2] [mm] | Zone of inhibition [3] [mm]
insulin: insulin from bovine pancreas (≧27 units/mg), suspension in distilled water | sharp significant decrease | No significant difference | returned to the diabetic state | – | –
C[C@@H]1[C@H](O)[C@@H](C)/C=C/C=C/CC/C=C/C=C/C=C/C=C/C(O[C@H]2O[C@H](C)[C@@H](O)[C@H](N)[C@@H]2O)CC2O[C@](O)(CC(O)C(O)CCC(O)CC(O)CC(O)CC(=O)O[C@H]1C)CC(O)C2C(=O)O (some centres unmarked) [Nystatin, nystatin] | – | – | – | 9 | 10

From patent US8685462B1, “Whole, leech saliva product and applications thereof” (priority 2012, dated 2014)
